ChEMBL document CHEMBL1147623, “Interference of the galactose-dependent binding of lectins by novel pentapeptide ligands” (Bioorg Med Chem Lett, 2004)

How the values were obtained:
[1] = Inhibition of galectin-1 binding was determined in solid phase assay
[2] = Inhibition of CG-14 binding was determined in solid phase assay; design: species or system Gallus gallus

| Structure (SMILES) | IC50 [1] | IC50 [2] |
| --- | --- | --- |
| CC(C)C[C@H](NC(=O)[C@H](Cc1ccc(O)cc1)NC(=O)[C@@H](CC(=O)O)NC(=O)COCC(=O)NCCCOCCOCCOCCCN)C(=O)N[C@@H](Cc1ccc(O)cc1)C(=O)N[C@@H](Cc1ccccc1)C(N)=O | 8 mM | 6.9 mM |
| CC(O)[C@@H](NC(=O)COCC(=O)NCCCOCCOCCOCCCN)C(=O)N[C@@H](Cc1ccc(O)cc1)C(=O)N[C@H](CC(=O)O)C(=O)N[C@@H](Cc1ccc(O)cc1)C(=O)N[C@@H](Cc1ccccc1)C(N)=O (some centres undefined) | 5.2 mM | 7.5 mM |
